Source: patent publication US9079866B2, “Flap modulators” (JANSSEN PHARMACEUTICA NV, priority 2013, dated 2015)
pIC50, pKi: −log10 of the molar value. Counter-ions that a name gives are not always drawn. Like-named read-outs stand apart in the source and are kept apart here.

How the values were obtained:
[1] = target: human FLAP (Homo sapiens (Human), UniProt P20292); test: FLAP binding assay (HTRF format); conditions: HTRF format
Summary of the method: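 Read-out is the HTRF ratio. Each reported figure averages two assay plates on which samples were tested in duplicate.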

[2] = test system: leukotriene pathway in human whole blood (LTB4 levels); test: Human whole blood assay (A23187-stimulated LTB4); assay type: cell-based; conditions: read-out: LTB4 IC50 1:1
Summary of the method: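 Single-replicate data from at least one healthy donor: compound pre-incubated 15 min at 37° Celsius in 1:1 RPMI-diluted heparinised blood, followed by 30 min calcium ionophore A23187 (7 μg/mL) challenge at 37° Celsius. LTB4 in plasma quantified by kit; IC50 via 4-parameter equation.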

[3] = Homo sapiens, human whole blood diluted 1:1, A23187-stimulated
[4] = human FLAP wild type, average of two plates, duplicates
[5] = Homo sapiens, human whole blood diluted 1:1 in RPMI, A23187-stimulated LTB4

Sequence of human FLAP (P20292 whole entry): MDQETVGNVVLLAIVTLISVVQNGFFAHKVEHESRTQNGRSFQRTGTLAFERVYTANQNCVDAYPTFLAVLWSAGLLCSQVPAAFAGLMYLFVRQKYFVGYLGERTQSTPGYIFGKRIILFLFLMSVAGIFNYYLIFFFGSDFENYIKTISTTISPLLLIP

Row | SMILES | pKi ([1]; wild type FLAP) | pIC50 [2, 3] | pKi [1, 4] | pIC50 [2, 5] | pIC50 ([2]; human whole blood diluted 1:1 in RPMI, A23187-stimulated LTB4)
1 | Nc1cnc(-c2ccc(-c3cccnc3S(=O)(=O)C3CC3)cc2F)cn1 [Example 829, 5-{4-[2-(Cyclopropylsulfonyl)pyridin-3-yl]-2-fluorophenyl}pyrazin-2-amine formic acid salt] | 8.49 | 8.22 | – | – | –
2 | Nc1cnc(-c2ccc(-c3ccccc3S(=O)(=O)NCCc3ccccc3)cc2F)cn1 [Example 17, 4′-(5-Aminopyrazin-2-yl)-3′-fluoro-N-(2-phenylethyl)biphenyl-2-sulfonamide] | – | – | 8.70 | 7.60 | –
3 | Nc1ncc(-c2ccc(-c3ccccc3N3CCCS3(=O)=O)cc2F)cn1 [Example 858, 5-[2′-(1,1-Dioxidoisothiazolidin-2-yl)-3-fluorobiphenyl-4-yl]pyrimidin-2-amine] | 6.68 | 6.43 | – | – | –
4 | C[C@@H](CO)NS(=O)(=O)Cc1ccccc1-c1ccc(-c2cnc(N)cn2)c(F)c1 [Example 224, (S)-1-(4′-(5-Aminopyrazin-2-yl)-3′-fluoro-[1,1′-biphenyl]-2-yl)-N-(1-hydroxypropan-2-yl)-methanesulfonamide] | – | – | 6.53 | 6.29 | –
5 | N#CC1(S(=O)(=O)c2ccccc2-c2ccc(-c3cnc(N)nc3)c(F)c2)CCCC1 [Example 738, 1-{[4′-(2-Aminopyrimidin-5-yl)-3′-fluorobiphenyl-2-yl]sulfonyl}cyclopentanecarbonitrile] | 6.62 | 5.53 | – | – | –
6 | C[C@H](O)CNS(=O)(=O)c1ccccc1-c1ccc(-c2ncc(N)nc2C#N)c(F)c1 [Example 707, 4′-(5-Amino-3-cyanopyrazin-2-yl)-3′-fluoro-N-[(2S)-2-hydroxypropyl]biphenyl-2-sulfonamide] | 7.49 | 6.90 | – | – | –
7 | CN(C)S(=O)(=O)c1ccccc1-c1ccc(-c2cnc3[nH]ccc3n2)c(F)c1 [Example 370, 3′-Fluoro-N,N-dimethyl-4′-(5H-pyrrolo[2,3-b]pyrazin-2-yl)biphenyl-2-sulfonamide] | – | – | 8.70 | 7.06 | –
8 | CC(C)(C)NS(=O)(=O)c1ccccc1-c1ccc(-c2cnc(N)nc2)c(F)c1 [Example 305, 4′-(2-Aminopyrimidin-5-yl)-N-(tert-butyl)-3′-fluoro-[1,1′-biphenyl]-2-sulfonamide trifluoroacetic acid salt] | – | – | 8.70 | 7.11 | –
9 | CC(C)C[C@H](NS(=O)(=O)c1ccccc1-c1ccc(-c2cnc(N)cn2)c(F)c1)C(N)=O [Example 168, (S)-2-(4′-(5-Aminopyrazin-2-yl)-3′-fluoro-[1,1′-biphenyl]-2-ylsulfonamido)-4-methylpentanamide] | – | – | 7.85 | 6.87 | –
10 | Nc1cnc(-c2ccc(-c3ccccc3S(=O)(=O)N3CC[C@@H](CO)C3)cc2F)cn1 [Example 111, (R)-(1-((4′-(5-Aminopyrazin-2-yl)-3′-fluoro-[1,1′-biphenyl]-2-yl)sulfonyl)pyrrolidin-3-yl)methanol] | – | – | 8.40 | 7.24 | –
11 | Nc1cnc(-c2ccc(-c3ccccc3S(=O)(=O)N[C@@H]3c4ccccc4C[C@H]3O)cc2F)cn1 [Example 159, 4′-(5-Aminopyrazin-2-yl)-3′-fluoro-N-((1R,2R)-2-hydroxy-2,3-dihydro-1H-inden-1-yl)-[1′,1′-biphenyl]-2-sulfonamide] | – | – | 9.00 | 9.00 | –
12 | NS(=O)(=O)c1ccccc1-c1ccc(-c2cnc3c(c2)OCCN3)c(F)c1 [Example 387, 4′-(3,4-Dihydro-2H-pyrido[3,2-b][1,4]oxazin-7-yl)-3′-fluorobiphenyl-2-sulfonamide] | – | – | 8.10 | 6.60 | –
13 | Cc1cc(C)nc(Oc2ccccc2-c2ccc(-c3cnc(N)cn3)c(F)c2)n1 [Example 608, 5-{2′-[(4,6-Dimethylpyrimidin-2-yl)oxy]-3-fluorobiphenyl-4-yl}pyrazin-2-amine] | 7.54 | 7.27 | – | – | –
14 | Nc1ncc(-c2ccc(-c3ccc(C(F)(F)F)cc3Oc3ncccn3)cc2F)cn1 [Example 552, 5-[3-Fluoro-2′-(pyrimidin-2-yloxy)-4′-(trifluoromethyl)biphenyl-4-yl]pyrimidin-2-amine] | 8.30 | 6.99 | – | – | –
15 | Nc1cnc(-c2ccc(-c3ccc(C(F)(F)F)cc3CNCCO)cc2F)cn1 [Example 607, 2-({[4′-(5-Aminopyrazin-2-yl)-3′-fluoro-4-(trifluoromethyl)biphenyl-2-yl]methyl}amino)ethanol] | 6.86 | 6.82 | – | – | –
16 | Nc1ncc(-c2ccc(-c3ccccc3S(=O)(=O)CCCn3c(=O)[nH]c4ccccc43)cc2F)cn1 [Example 318, 1-(3-((4′-(2-Aminopyrimidin-5-yl)-3′-fluoro-[1,1′-biphenyl]-2-yl)sulfonyl)propyl)-1H-benzo[d]imidazol-2(3H)-one] | – | – | 6.16 | 5.70 | –
17 | CC(C)(C)NC(=O)c1cc(C(F)(F)F)ccc1-c1ccc(-c2cnc(N)cn2)c(F)c1 [Example 784, 2-[4-(5-Aminopyrazin-2-yl)-3-fluoro-phenyl]-N-tert-butyl-5-(trifluoromethyl)benzamide] | 8.10 | 6.96 | – | – | –

Row | SMILES | pKi ([1]; wild type FLAP) | pIC50 [2, 3] | pKi [1, 4] | pIC50 [2, 5] | pIC50 ([2]; human whole blood diluted 1:1 in RPMI, A23187-stimulated LTB4)
18 | Nc1ncc(-c2ccc(-c3ccccc3S(=O)(=O)N3CCC[C@H]3CO)cc2F)cn1 [Example 277, [(2S)-1-{[4′-(2-Aminopyrimidin-5-yl)-3′-fluorobiphenyl-2-yl]sulfonyl}pyrrolidin-2-yl]methanol trifluoroacetic acid salt] | – | – | 7.28 | < 6.00 | –
19 | CC[C@@H](CO)NS(=O)(=O)c1ccccc1-c1ccc(-c2cnc(N)cn2)c(F)c1 [Example 153, (S)-4′-(5-Aminopyrazin-2-yl)-3′-fluoro-N-(1-hydroxybutan-2-yl)-[1,1′-biphenyl]-2-sulfonamide] | – | – | 8.52 | 8.15 | –
20 | Nc1cnc(-c2ccc(-c3ccccc3Sc3ncccn3)cc2F)cn1 [Example 213, 5-[3-Fluoro-2′-(pyrimidin-2-ylsulfanyl)biphenyl-4-yl]pyrazin-2-amine hydrochloride] | – | – | 8.70 | 7.60 | –
21 | CC(C)S(=O)(=O)c1ncccc1-c1ccc(-c2cnc3[nH]ccc3c2)c(F)c1 [Example 826, 5-(2-Fluoro-4-(2-(isopropylsulfonyl)pyridine-3-yl)phenyl)-1H-pyrrolo[2,3-b]pyridine] | 9.15 | 7.70 | – | – | –
22 | CC(C)(C)NS(=O)(=O)c1ccccc1-c1ccc(-c2cnc(N)c(N)c2)c(F)c1 [Example 448, N-tert-Butyl-4′-(5,6-diaminopyridin-3-yl)-3′-fluorobiphenyl-2-sulfonamide] | 8.00 | 6.95 | – | – | –
23 | N#Cc1cc(Oc2ccccc2-c2ccc(-c3cnc(N)cn3)c(F)c2)ccn1 [Example 537, 4-{[4′-(5-Aminopyrazin-2-yl)-3′-fluorobiphenyl-2-yl]oxy}pyridine-2-carbonitrile] | 8.52 | 7.38 | – | – | –
24 | C[C@@H](NS(=O)(=O)c1ccccc1-c1ccc(-c2cnc(N)cn2)c(F)c1)C(F)(F)F [Example 127, (R)-4′-(5-Aminopyrazin-2-yl)-3′-fluoro-N-(2,2,2-trifluoro-1-methylethyl)biphenyl-2-sulfonamide] | – | – | 8.70 | – | 7.46
25 | C[C@H](CO)NC(=O)c1cc(C(F)(F)F)ccc1-c1ccc(-c2cnc(N)cn2)c(F)c1 [Example 785, 2-[4-(5-Aminopyrazin-2-yl)-3-fluoro-phenyl]-N-[(1R)-2-hydroxy-1-methyl-ethyl]-5-(trifluoromethyl)benzamide] | 8.07 | 7.24 | – | – | –
26 | N#Cc1cccnc1COc1ccccc1-c1ccc(-c2cnc(N)cn2)c(F)c1 [Example 531, 2-({[4′-(5-Aminopyrazin-2-yl)-3′-fluorobiphenyl-2-yl]oxy}methyl)pyridine-3-carbonitrile] | 8.10 | 6.49 | – | – | –
27 | N#Cc1ccc(Oc2ccccc2-c2ccc(-c3cnc(N)nc3)c(F)c2)nc1 [Example 627, 6-{[4′-(2-Aminopyrimidin-5-yl)-3′-fluorobiphenyl-2-yl]oxy}pyridine-3-carbonitrile] | 7.36 | 6.44 | – | – | –
28 | CC(C)(C)NS(=O)(=O)c1ccccc1-c1ccc(-c2cnc(N)c(Br)n2)c(F)c1 [Example 442, 4′-(5-Amino-6-bromopyrazin-2-yl)-N-tert-butyl-3′-fluorobiphenyl-2-sulfonamide] | 9.00 | 8.05 | – | – | –
29 | Nc1cnc(-c2ccc(-c3ccccc3S(=O)(=O)N[C@H]3c4ccccc4C[C@@H]3O)cc2F)cn1 [Example 158, 4′-(5-Aminopyrazin-2-yl)-3′-fluoro-N-((1S,2S)-2-hydroxy-2,3-dihydro-1H-inden-1-yl)-[1,1′-biphenyl]-2-sulfonamide] | – | – | 9.00 | 9.00 | –
30 | Nc1cnc(-c2ccc(-c3ccccc3S(=O)(=O)N[C@@H]3CCc4ccccc43)cc2F)cn1 [Example 23, (R)-4′-(5-Aminopyrazin-2-yl)-N-[(1R)-2,3-dihydro-1H-inden-1-yl]-3′-fluorobiphenyl-2-sulfonamide] | – | – | 9.00 | 7.89 | –
31 | Nc1cnc(-c2ccc(-c3ccccc3S(=O)(=O)N3CCCCC3)cc2F)cn1 [Example 43, 5-[3-Fluoro-2′-(piperidin-1-ylsulfonyl)biphenyl-4-yl]pyrazin-2-amine] | – | – | 8.70 | 6.95 | –
32 | C[C@@H](CO)NS(=O)(=O)c1ccccc1-c1ccc(-c2cnc3c(c2)OCCN3)c(F)c1 [Example 388, 4′-(3,4-Dihydro-2H-pyrido[3,2-b][1,4]oxazin-7-yl)-3′-fluoro-N-[(1S)-2-hydroxy-1-methylethyl]biphenyl-2-sulfonamide] | – | – | 8.70 | 7.43 | –
33 | CCN(CC)S(=O)(=O)c1ccccc1-c1ccc(-c2cnc(N)nc2)c(F)c1 [Example 300, 4′-(2-Aminopyrimidin-5-yl)-N,N-diethyl-3′-fluorobiphenyl-2-sulfonamide trifluoroacetic acid salt] | – | – | 7.89 | 6.92 | –
